Data as given in the NIST ThermoML archive (doi:10.1016/j.jct.2017.03.016).

How the values were obtained:
[1] = wn = mass fraction of the nth substance listed; settings: for surface tension liquid-gas: Maximal bubble pressure; for mass density: 100 kPa, Liquid, Vibrating tube method
[2] = refractive index (Na D-line) (dimensionless); wn = mass fraction of the nth substance listed; settings: 100 kPa, Liquid, Standard Abbe refractometry

CCn1cc[n+](CCOC)c1.N#C[N-]C#N [1-ethyl-3-(2-methoxyethyl)imidazolium dicyanamide] + O
Settings	mass density, [1] [kg/m3]	refractive index, [2]	surface tension liquid-gas, [1] [mN/m]
298.15 K, w2 = 0.00031	–	–	51.1
298.15 K, w2 = 0.00148	1113.35	1.5049	–
298.15 K, w2 = 0.00175	–	–	51.3
298.15 K, w2 = 0.00277	1113.18	1.5045	–
298.15 K, w2 = 0.00317	–	–	51.7
298.15 K, w2 = 0.00434	1112.96	1.5041	–
298.15 K, w2 = 0.00461	–	–	52
298.15 K, w2 = 0.0055	1112.77	1.5037	–
298.15 K, w2 = 0.00609	–	–	52.3
298.15 K, w2 = 0.00719	1112.46	1.5033	–
303.15 K, w2 = 0.00031	–	–	50.8
303.15 K, w2 = 0.00148	1109.96	1.5036	–
303.15 K, w2 = 0.00175	–	–	51.1
303.15 K, w2 = 0.00277	1109.78	1.5032	–
303.15 K, w2 = 0.00317	–	–	51.4
303.15 K, w2 = 0.00434	1109.57	1.5028	–
303.15 K, w2 = 0.00461	–	–	51.7
303.15 K, w2 = 0.0055	1109.37	1.5024	–
303.15 K, w2 = 0.00609	–	–	52
303.15 K, w2 = 0.00719	1109.06	1.5019	–
308.15 K, w2 = 0.00031	–	–	50.5
308.15 K, w2 = 0.00148	1106.58	1.5024	–
308.15 K, w2 = 0.00175	–	–	50.8
308.15 K, w2 = 0.00277	1106.41	1.5019	–
308.15 K, w2 = 0.00317	–	–	51.1
308.15 K, w2 = 0.00434	1106.19	1.5015	–
308.15 K, w2 = 0.00461	–	–	51.4
308.15 K, w2 = 0.0055	1106	1.501	–
308.15 K, w2 = 0.00609	–	–	51.7
308.15 K, w2 = 0.00719	1105.69	1.5006	–
313.15 K, w2 = 0.00031	–	–	50.2
313.15 K, w2 = 0.00148	1103.23	1.5012	–
313.15 K, w2 = 0.00175	–	–	50.5
313.15 K, w2 = 0.00277	1103.05	1.5007	–
313.15 K, w2 = 0.00317	–	–	50.8
313.15 K, w2 = 0.00434	1102.83	1.5002	–
313.15 K, w2 = 0.00461	–	–	51.1
313.15 K, w2 = 0.0055	1102.64	1.4996	–
313.15 K, w2 = 0.00609	–	–	51.4
313.15 K, w2 = 0.00719	1102.33	1.4992	–
318.15 K, w2 = 0.00031	–	–	49.9
318.15 K, w2 = 0.00148	1099.89	1.4996	–
318.15 K, w2 = 0.00175	–	–	50.2
318.15 K, w2 = 0.00277	1099.72	1.4992	–
318.15 K, w2 = 0.00317	–	–	50.5
318.15 K, w2 = 0.00434	1099.5	1.4987	–
318.15 K, w2 = 0.00461	–	–	50.8
318.15 K, w2 = 0.0055	1099.3	1.4982	–
318.15 K, w2 = 0.00609	–	–	51.1
318.15 K, w2 = 0.00719	1098.99	1.4979	–
323.15 K, w2 = 0.00031	–	–	49.6
323.15 K, w2 = 0.00148	1096.58	1.4984	–
323.15 K, w2 = 0.00175	–	–	49.9
323.15 K, w2 = 0.00277	1096.4	1.498	–
323.15 K, w2 = 0.00317	–	–	50.2
323.15 K, w2 = 0.00434	1096.18	1.4975	–
323.15 K, w2 = 0.00461	–	–	50.6
323.15 K, w2 = 0.0055	1095.98	1.497	–
323.15 K, w2 = 0.00609	–	–	50.8
323.15 K, w2 = 0.00719	1095.66	1.4965	–
328.15 K, w2 = 0.00031	–	–	49.4
328.15 K, w2 = 0.00148	1093.27	1.4971	–
328.15 K, w2 = 0.00175	–	–	49.7
328.15 K, w2 = 0.00277	1093.1	1.4966	–
328.15 K, w2 = 0.00317	–	–	50
328.15 K, w2 = 0.00434	1092.88	1.496	–
328.15 K, w2 = 0.00461	–	–	50.4
328.15 K, w2 = 0.0055	1092.68	1.4955	–
328.15 K, w2 = 0.00609	–	–	50.6
328.15 K, w2 = 0.00719	1092.36	1.4949	–
333.15 K, w2 = 0.00031	–	–	49.1
333.15 K, w2 = 0.00148	1090	1.4954	–
333.15 K, w2 = 0.00175	–	–	49.5
333.15 K, w2 = 0.00277	1089.82	1.495	–
333.15 K, w2 = 0.00317	–	–	49.8
333.15 K, w2 = 0.00434	1089.59	1.4945	–
333.15 K, w2 = 0.00461	–	–	50.1
333.15 K, w2 = 0.0055	1089.4	1.4939	–
333.15 K, w2 = 0.00609	–	–	50.4
333.15 K, w2 = 0.00719	1089.08	1.4934	–
338.15 K, w2 = 0.00031	–	–	48.8
338.15 K, w2 = 0.00148	1086.74	1.4941	–
338.15 K, w2 = 0.00175	–	–	49.2
338.15 K, w2 = 0.00277	1086.56	1.4935	–
338.15 K, w2 = 0.00317	–	–	49.5
338.15 K, w2 = 0.00434	1086.33	1.4929	–
338.15 K, w2 = 0.00461	–	–	49.8
338.15 K, w2 = 0.0055	1086.13	1.4923	–
338.15 K, w2 = 0.00609	–	–	50.1
338.15 K, w2 = 0.00719	1085.81	1.4919	–
